From US10434181B2, “Oligomer-containing benzamide-based compounds” (Nektar Therapeutics, priority 2012, dated 2019)
Several values for one entry are separate records, joined by “and”; a condition that tells them apart may be missing. Identical values can stand only once. Like-named read-outs stand apart in the source and are kept apart here. Marks after values point to notes of the source that are not given here. Each block holds one compound with its values, some of them ahead of it.

Assays:
[1] = Rat PK (intravenous and oral)
Description: (§3) Rat pharmacokinetic (“PK”) characterization was conducted in male Sprague Dawley Rats (Rattus Norvegicus) weighing between 210-260 gm (Charles River Laboratories (Hollister, Calif.)). Rats were fed a standard diet and water was available ad-libidum at all times. […] Animals were dosed either orally (2.5 mg/Kg) via gavage or intravenously (0.5 mg/kg) via the jugular vein cannula. Blood samples (˜0.15 mL) were collected through carotid artery cannula at respective time points and transferred immediately into K2EDTA-coated tubes (that contain quenching media-acetic acid, PMSF and Dichlorvos) and placed on ice. The samples were centrifuged within thirty minutes after collection at 10,000 RPM for five minutes and the resulting plasma was separated. Plasma were transferred into microfuge tubes and placed on dry ice immediately. The plasma samples were stored at approximately −70° C. until shipped on dry ice for Bioanalysis by LC/MS/MS. Urine samples were collected using metabolic cages into a tube containing citric acid (4 mg for 0-4 and 4-8 hr interval and 16 mg for 8-24 hr interval) on wet ice at the intervals specified in the study design. After the completion of urine collection at each interval, each cage was rinsed with 2 mL of deionized water (1 mL each time). The rinse was collected in the separate labeled container (containing 2 mg of citric acid) as the urine. Following this rinse another 2 ml rinse was carried out with ethanol (1 ml each time). The rinse was also collected in the separate labeled container as the urine. Samples were stored frozen at −70° C. until bioanalysis by LC/MS/MS was performed.
(§4) Pharmacokinetic parameters were determined by non-compartmental analysis using Phoenix®WinNonlin® (Version 6.3; Pharsight Corp., Mountain View, Calif.). Nominal doses and sampling times were used for the analysis. Concentrations reported as BLQ were treated as missing unless they were pre-dose; then they were set to zero. Maximum plasma concentration (Cmax) and time of observed maximum plasma analyte concentration (Tmax) were generated by Phoenix®WinNonlin®, directly from the inputed dataset. […] Area under the plasma concentration-time curve from time 0 to infinity (AUCinf) was calculated as the sum of AUClast and the last observed concentration divided by k. Total plasma clearance (CL) was calculated as Dose/AUCinf. Apparent volume of distribution at steady state (Vss) was calculated as MRTinf*CL, where MRT is the mean residence time.

CYP2D6 [2] = target: T1, CYP2D6 (Homo sapiens, UniProt P10635); details: cited from earlier work
T1 sequence (P10635 whole entry): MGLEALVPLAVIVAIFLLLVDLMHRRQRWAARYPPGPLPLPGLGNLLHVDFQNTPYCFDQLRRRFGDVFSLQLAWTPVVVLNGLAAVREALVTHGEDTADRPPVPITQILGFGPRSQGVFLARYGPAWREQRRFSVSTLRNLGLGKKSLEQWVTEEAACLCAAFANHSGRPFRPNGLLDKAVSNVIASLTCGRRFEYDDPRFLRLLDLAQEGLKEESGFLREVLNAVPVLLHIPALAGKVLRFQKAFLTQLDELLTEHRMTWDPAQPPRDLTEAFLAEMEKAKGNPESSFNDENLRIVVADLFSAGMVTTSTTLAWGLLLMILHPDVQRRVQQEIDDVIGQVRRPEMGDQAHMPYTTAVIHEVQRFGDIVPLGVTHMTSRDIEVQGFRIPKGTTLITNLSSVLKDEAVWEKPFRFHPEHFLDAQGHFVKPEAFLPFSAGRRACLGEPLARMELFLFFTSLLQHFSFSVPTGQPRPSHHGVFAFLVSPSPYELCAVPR

[3] = target: T2, 5HT3A receptors (serotonin 3A receptors) (Homo sapiens, UniProt P46098); assay: Competition binding assay (serotonin 3A receptors), [3H]GR65630; details: for IC50: [3H]GR65630 competition, HEK 293 membranes expressing 5HT3A; for Fold-change Relative to Parent: IC50 relative to metoclopramide, 5HT3A binding
T2 construct: expressed in transfected cells
T2 sequence (P46098 24-478): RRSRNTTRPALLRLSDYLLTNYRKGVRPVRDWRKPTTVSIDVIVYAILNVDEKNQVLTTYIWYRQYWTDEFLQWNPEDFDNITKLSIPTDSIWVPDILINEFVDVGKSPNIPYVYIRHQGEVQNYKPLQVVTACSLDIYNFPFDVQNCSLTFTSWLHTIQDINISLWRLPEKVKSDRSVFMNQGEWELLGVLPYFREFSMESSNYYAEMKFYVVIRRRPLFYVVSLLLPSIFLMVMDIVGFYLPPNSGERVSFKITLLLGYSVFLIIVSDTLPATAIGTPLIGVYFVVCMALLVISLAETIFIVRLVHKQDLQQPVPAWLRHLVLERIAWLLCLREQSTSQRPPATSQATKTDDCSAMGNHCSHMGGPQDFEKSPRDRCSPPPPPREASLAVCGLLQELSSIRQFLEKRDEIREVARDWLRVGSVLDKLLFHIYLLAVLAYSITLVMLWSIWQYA
Description: [^3H] […] To start the assay, 1 uL of compound was added into 96-well v-bottom plates, followed by the addition of 50 uL of diluted membrane preparation, then finally diluted [^3H] […] The assay mixture was incubated for 60 minutes at room temperature with shaking. Following incubation, bound [^3H] […] Filter plates were air dried for two minutes, and then 50 uL of MicroScint-20 was added into each well. Radioactivity counts were quantified using a Top Count plate reader (Perkin Elmer). Data was analyzed using one-site binding competition non-linear regression curve fitting on GraphPad Prism.

dopamine 2L receptors [4] = target: T3, dopamine 2L receptors (Homo sapiens, UniProt P14416); assay: Competition binding assay (dopamine 2L receptors), [3H]methylspiperone; design: expressed in transfected cells; details: for Fold-change Relative to Parent: IC50 relative to metoclopramide, D2L binding
T3 sequence (P14416 whole entry): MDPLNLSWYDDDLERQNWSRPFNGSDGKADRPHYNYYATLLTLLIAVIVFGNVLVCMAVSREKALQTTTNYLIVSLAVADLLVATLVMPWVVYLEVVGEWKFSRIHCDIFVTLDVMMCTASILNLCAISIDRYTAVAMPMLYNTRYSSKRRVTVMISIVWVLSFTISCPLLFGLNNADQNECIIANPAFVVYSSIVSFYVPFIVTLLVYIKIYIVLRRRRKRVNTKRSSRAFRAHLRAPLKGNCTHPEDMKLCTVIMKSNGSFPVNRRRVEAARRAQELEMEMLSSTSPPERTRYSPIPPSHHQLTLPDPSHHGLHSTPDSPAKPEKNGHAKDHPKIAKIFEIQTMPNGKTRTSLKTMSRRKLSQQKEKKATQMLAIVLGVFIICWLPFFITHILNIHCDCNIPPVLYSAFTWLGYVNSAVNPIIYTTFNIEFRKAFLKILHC
Description: [^3H] Methylspiperone was diluted in assay buffer to a final concentration of 0.4 nM. To start the assay, 1 uL of compound was added into 96-well v-bottom plates, followed by the addition of 50 uL of diluted membrane preparation, then finally diluted [^3H] Methylspiperone was added. The assay mixture was incubated for 60 minutes at room temperature with shaking. Following incubation, bound [^3H] methylspiperone on 5% PEI soaked GF/B filter plates using a Filtermate Harvester (Perkin Elmer) were then washed four times with ice cold wash buffer (50 mM Tris-HCl, pH 7.5). Filter plates were air dried for two minutes, and then 50 uL of MicroScint-20 was added into each well. Radioactivity counts were quantified using a Top Count plate reader (Perkin Elmer). Data was analyzed using one-site binding competition non-linear regression curve fitting on GraphPad Prism.

[5] = target: T2, 5HT3A receptors (serotonin 3A receptors); details: value in brackets after the IC50; cited from earlier work
dopamine 2L receptors [6] = target: T3, dopamine 2L receptors; details: read-out: expected IC50; expected value; cited from earlier work
dopamine 2S receptor = target: T4, dopamine 2S receptor (Homo sapiens, UniProt P14416); assay: β-Arrestin functional assay (dopamine), antagonist mode; format: cell-based; details: for IC50: β-arrestin interaction, CHO-K1 cells expressing D2S, dopamine at EC80 (400 nM); for Fold-change Relative to Parent: IC50 relative to metoclopramide, D2S β-arrestin
T4 construct: host or cells: CHO-K1 (PathHunter eXpress β-arrestin cells)
T4 sequence (P14416 1-414 isoform P14416-2): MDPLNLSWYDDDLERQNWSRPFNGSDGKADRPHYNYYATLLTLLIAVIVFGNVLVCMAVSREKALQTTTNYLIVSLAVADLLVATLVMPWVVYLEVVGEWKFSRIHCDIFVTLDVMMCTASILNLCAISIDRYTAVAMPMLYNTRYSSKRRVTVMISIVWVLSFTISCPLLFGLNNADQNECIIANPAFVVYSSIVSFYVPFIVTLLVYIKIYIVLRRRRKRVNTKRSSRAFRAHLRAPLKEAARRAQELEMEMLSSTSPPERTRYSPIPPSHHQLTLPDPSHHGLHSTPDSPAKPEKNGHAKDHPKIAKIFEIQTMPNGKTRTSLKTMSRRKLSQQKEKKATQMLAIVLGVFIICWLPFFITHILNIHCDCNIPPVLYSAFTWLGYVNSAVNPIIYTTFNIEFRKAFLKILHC

[7] = Chemical stability in potassium phosphate buffer; format: physicochemical; details: 100 mM potassium phosphate buffer, pH 7.4 at 37° C. for up to 30 minutes
Description: FIG. 5B is a plot of the results of a chemical stability study of test articles in a 100 mM potassium phosphate buffer, pH 7.4 at 37° C. for up to thirty minutes.

in vivo = details: male, Sprague Dawley, rat, plasma
Description: as §3, §4

[8] = tested on: Sprague-Dawley rat hepatocytes; assay: MetID determination in rat hepatocytes; format: in vitro ADME
Description: (§1) Cryopreserved human and Sprague-Dawley rat hepatocytes were thawed in a 37° C. water bath. […] Samples were obtained from separate plates for each time point during the incubation. At each sampling time, the plates were removed from the incubator, quenched by adding 100 μL cold acetonitrile, and placed in an ice bath until centrifugation at 4,000 rpm for 30 minutes at 4° C. Supernatants were stored at or below −70° C. until LC-MS/MS analysis could be conducted. The liquid chromatography system used was Agilent 1100 Autosampler, Binary Pump, DAD and Column Enclosure. Tandem mass spectrometry was conducted using a Thermo DECA XP MAX Ion Trap Mass Spectrometer. The ion source was Electrospray (+) and the LC column used was a Varian, Polaris 5 C18-A (250×2.1 mm, 5 micron) column.
(§2) Metabolic pathways of metoclopramide and conjugates were determined in rat and human hepatocytes. N-dealkylation was the major metabolic pathway for metoclopramide in rats, and metabolism in human hepatocytes was minimal. […] FIG. 2 and FIG. 3 show the metabolic pathway of for mPEG1-N-metoclopramide and mPEG4-N-metoclopramide, respectively. […] In this figure, different metabolites for each conjugate are denoted with the “M” and correspond to the designation provided in the figure for a given conjugate. For example, metabolite M1 for mPEG1-N-metoclopramide in Table 6 corresponds to M1 in FIG. 2, metabolite M2 for mPEG4-N-metoclopramide in Table 6 corresponds to M2 in FIG. 3 and metabolite M3 mPEG8-N-metoclopramide in Table 6 corresponds to M3 in FIG. 4.

human hepatocytes = assay: MetID determination in human hepatocytes; format: in vitro ADME
Description: as §1, §2

[9] = target: T5, 5HT4B receptors (serotonin 4B receptors) (Homo sapiens, UniProt Q13639); details: value in brackets after the IC50; cited from earlier work
T5 construct: expressed in transfected cells
T5 sequence (Q13639 whole entry): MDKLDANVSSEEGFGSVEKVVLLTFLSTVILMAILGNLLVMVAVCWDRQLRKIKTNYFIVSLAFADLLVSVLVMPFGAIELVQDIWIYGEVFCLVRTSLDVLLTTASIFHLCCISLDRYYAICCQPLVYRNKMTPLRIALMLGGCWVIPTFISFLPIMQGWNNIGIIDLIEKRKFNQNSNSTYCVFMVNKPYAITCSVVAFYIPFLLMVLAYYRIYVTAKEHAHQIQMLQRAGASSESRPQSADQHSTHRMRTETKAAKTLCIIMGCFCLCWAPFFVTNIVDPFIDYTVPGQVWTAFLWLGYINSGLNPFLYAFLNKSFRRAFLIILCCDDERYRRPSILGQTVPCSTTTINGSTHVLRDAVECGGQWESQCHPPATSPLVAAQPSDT

[10] = target: T5, 5HT4B receptors (serotonin 4B receptors); assay: Competition binding assay (serotonin 4B receptors), [3H]GR113808; details: for Fold-change Relative to Parent: IC50 relative to metoclopramide, 5HT4B binding; for IC50: [3H]GR113808 competition, HEK 293 membranes expressing 5HT4B
CYP2D6 [11] = target: T1, CYP2D6; assay: Metabolic stability in human recombinant CYP2D6 enzyme; format: in vitro ADME; design: purchased Xenotech, LLC; details: 1 μM, 100 pmol/mL CYP2D6, up to 30 min, 37° C.
[12] = [3H]methylspiperone competition, HEK 293 membranes expressing D2L, read-out: IC50
[13] = preliminary run that was not quality controlled, read-out: IC50, preliminary run
[14] = incubation of 10 μM metoclopramide, parent and its metabolites M (FIG. 1)

Compound: CCN(CC)CCNC(=O)c1cc(Cl)c(N)cc1OC [Metoclopramide, N-(2-diethylaminoethyl)-2-methoxy-4-amino-5-chlorobenzamide, reference compound]
CLRen ([1]; intravenous, 0.5 mg/kg): 7.2* mL/min/kg
Clast ([1]; oral gavage, 2.5 mg/Kg): 8.07 ng/mL
Tlast ([1]; oral gavage, 2.5 mg/Kg): 16 h
time-dependent inhibition of CYP2D6 (literature / known) (CYP2D6 [2]; as reported in the literature): CYP2D6 time-dependent inhibitor
IC50 ([3]; IC50 [M]): 6.86e-06 M
IC50 ([3]; IC50 [nM]): 6.86e-06 M
IC50 (dopamine 2L receptors [4]; [12]): 0.0842 µM
IC50 (dopamine 2L receptors [4]; [13]): 0.932 µM
pKi [5]: 5.9-6.4
IC50 (dopamine 2L receptors [6]): 0.54 µM
IC50 (dopamine 2S receptor): 0.0821 µM and 0.0822 µM
chemical stability [7]: chemically stable
AUC(0-inf) (in vivo; iv, 0.5 mg/kg): 66.8 ng·h/mL
MRT inf (in vivo; iv, 0.5 mg/kg): 32.4 min
Vd (in vivo; iv, 0.5 mg/kg): 4.12 L/kg
clearance (in vivo; iv, 0.5 mg/kg): 126 mL/min/kg
half-life (in vivo; iv, 0.5 mg/kg): 30 min
AUC (in vivo; po, 2.5 mg/kg): 261 ng·h/mL
CL/F (in vivo; po, 2.5 mg/kg): 131 mL/min/kg
Cmax (in vivo; po, 2.5 mg/kg): 166 ng/mL
Tmax (in vivo; po, 2.5 mg/kg): 22.8 min
% of Total Metabolism, Rat Hep 1 hr [8, 14]: 87%
% of Total Metabolism, Rat Hep 4 hr [8, 14]: 61%
major metabolic pathway ([8]; rat hepatocytes): N-dealkylation
extent of metabolism in human hepatocytes (human hepatocytes; human hepatocytes): minimal
% of Total Metabolism, Human Hep 1 hr (human hepatocytes; [14]): 96.8%
% of Total Metabolism, Human Hep 4 hr (human hepatocytes; [14]): 97.5%

Compound: CN1[C@@H]2CC[C@H]1C[C@@H](OC(=O)c1c[nH]c3ccccc13)C2 [Tropisetron]
pKi [9]: 8.5-8.8

Compound: Fc1ccc([C@@H]2CCNC[C@H]2COc2ccc3c(c2)OCO3)cc1 [paroxetine]
time-dependent inhibition of CYP2D6 (literature / known) (CYP2D6 [2]): time-dependent inhibitor of CYP2D6

Other lines, results leading:

Fold-change Relative to Parent [10]: 2.1
IC50 [10]: 31.8 µM
Fold-change Relative to Parent [3]: 23
IC50 ([3]; read-out: IC50): 0.00016 M
Fold-change Relative to Parent (dopamine 2L receptors [4]): 41
IC50 (dopamine 2L receptors [4]; [12]): 3.45 µM
IC50 (dopamine 2L receptors [4]; [13]): 4.65 µM and 13.1 µM
metabolism by human recombinant CYP2D6 enzyme (CYP2D6 [11]): to a lesser degree than metoclopramide
Fold-change Relative to Parent (dopamine 2S receptor): 25
IC50 (dopamine 2S receptor): 2.05 µM and 2.06 µM
chemical stability [7]: chemically stable
Compound: CCN(CCNC(=O)c1cc(Cl)c(N)cc1OC)CCOCCOCCOC [mPEG3-N-Metoclopramide]

Fold-change Relative to Parent [10]: 3.8
IC50 [10]: 58.1 µM
Fold-change Relative to Parent [3]: 156
IC50 ([3]; read-out: IC50): 0.00107 M
Fold-change Relative to Parent (dopamine 2L receptors [4]): 98.5
IC50 (dopamine 2L receptors [4]; [12]): 8.29 µM
IC50 (dopamine 2L receptors [4]; [13]): 15.1 µM
metabolism by human recombinant CYP2D6 enzyme (CYP2D6 [11]): to a lesser degree than metoclopramide
Fold-change Relative to Parent (dopamine 2S receptor): 44.1
IC50 (dopamine 2S receptor): 3.62 µM
chemical stability [7]: chemically stable
Compound: CCN(CCNC(=O)c1cc(Cl)c(N)cc1OC)CCOCCOCCOCCOCCOC [mPEG5-N-Metoclopramide]

Fold-change Relative to Parent [10]: 3.8
IC50 [10]: 57.8 µM
Fold-change Relative to Parent [3]: 129
IC50 ([3]; read-out: IC50): 0.000885 M
Fold-change Relative to Parent (dopamine 2L receptors [4]): 92.1
IC50 (dopamine 2L receptors [4]; [12]): 7.75 µM
metabolism by human recombinant CYP2D6 enzyme (CYP2D6 [11]): to a lesser degree than metoclopramide
Fold-change Relative to Parent (dopamine 2S receptor): 52.05
IC50 (dopamine 2S receptor): 4.27 µM and 4.28 µM
chemical stability [7]: chemically stable
Compound: CCN(CCNC(=O)c1cc(Cl)c(N)cc1OC)CCOCCOCCOCCOCCOCCOC [mPEG6-N-Metoclopramide]
